Literature values, collected in publication PMC11891579, “Fluorescent PyrAte-(S)-citalopram conjugates enable imaging of the serotonin transporter in living tissue” (Chemical Science, 2025).

Tested on: organic cation transporter 3 (OCT3)
Design: method as in PMID 34884800
Details: cited from earlier work

Compound: CN(C)CCC[C@@]1(c2ccc(F)cc2)OCc2cc(C#N)ccc21 [(S)-citalopram]
- affinity towards OCT3: does not display affinity towards OCT3
